Data: ChEMBL document CHEMBL3414554, “Novel 1-(2-aryl-2-adamantyl)piperazine derivatives with antiproliferative activity” (Eur J Med Chem, 2015)

How the values were obtained:
HeLa = assay: Cytotoxicity against human HeLa cells after 24 hrs by MTT colorimetric assay; format: functional, cell-based
[1] = Cytotoxicity against human MIAPaCa2 cells after 24 hrs by MTT colorimetric assay; format: functional, cell-based; details: MIA PaCa-2, 24 h
MDA-MB-231 = assay: Cytotoxicity against human MDA-MB-231 cells after 24 hrs by MTT colorimetric assay; format: functional, cell-based; details: MDA-MB-231, 24 h
NCI-H1975 = assay: Cytotoxicity against human NCI-H1975 cells after 24 hrs by MTT colorimetric assay; format: functional, cell-based; details: NCI-H1975, 24 h
NHDF = assay: Cytotoxicity against NHDF cells after 48 hrs by SRB staining assay; format: cell-based; details: human
HUVEC = assay: Cytotoxicity against HUVEC cells after 48 hrs by SRB staining assay; format: cell-based; details: human
[2] = target: Sigma non-opioid intracellular receptor 1 (Homo sapiens, UniProt Q99720); assay: Displacement of [3H]-(+)-pentazocine from sigma-1 receptor in human Jurkat cell membrane by liquid scintillation spectrometry; format: cell membranes
[3] = Displacement of [3H]BTX-B from neuronal Na+ channel in male Sprague-Dawley rat brain synaptosomal membrane vesicles by liquid scintillation spectrometry; format: tissue-based
[4] = Displacement of [3H]-DTG from sigma-2 receptor in rat cerebral cortex membranes in presence of (+)-pentazocine by liquid scintillation spectrometry; format: cell membranes, Membrane
Jurkat = assay: Selectivity ratio of IC50 for sigma-2 receptor in rat cerebral cortex membranes to IC50 for sigma-1 receptor in human Jurkat cell membrane; format: cell-based

Chain of Sigma non-opioid intracellular receptor 1 (Q99720 whole entry): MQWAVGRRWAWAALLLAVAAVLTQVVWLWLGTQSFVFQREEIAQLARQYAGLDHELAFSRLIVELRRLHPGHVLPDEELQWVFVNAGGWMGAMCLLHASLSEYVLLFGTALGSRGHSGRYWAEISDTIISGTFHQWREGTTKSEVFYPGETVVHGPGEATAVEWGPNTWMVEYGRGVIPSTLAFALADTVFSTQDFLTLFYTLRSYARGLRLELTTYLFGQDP

SMILES | IC50 (HeLa) [µM] | IC50 [1] [µM] | IC50 (MDA-MB-231) [µM] | IC50 (NCI-H1975) [µM] | LC50 (NHDF) [µM] | LC50 (HUVEC) [µM] | IC50 [2] [µM] | IC50 [3] [µM] | IC50 [4] [µM] | Ratio IC50 (Jurkat)
Nc1ccn([C@@H]2O[C@H](CO)[C@@H](O)C2(F)F)c(=O)n1 [GEMCITABINE] | 3.3 | 0.6 | 0.19 |  |  |  |  |  |  | 
CCOC(=O)N1CCN(C2(c3ccc(F)cc3)C3CC4CC(C3)CC2C4)CC1 (centres undefined) | 14.5 | 18.5 | 21 | 17.5 |  |  |  |  |  | 
CCOC(=O)N1CCN(C2(c3ccccc3)C3CC4CC(C3)CC2C4)CC1 (centres undefined) | 23 | 25.4 | 28 | 24.2 | 100 | > 100 |  |  |  | 
O=C(CN1CCCCC1)N1CCN(C2(c3ccc(F)cc3)C3CC4CC(C3)CC2C4)CC1 (centres undefined) | 8.4 | 14.6 | 6.8 | 12.7 | 85.26 | 88.78 |  |  |  | 
O=C(CN1CCCCC1)N1CCN(C2(c3ccccc3)C3CC4CC(C3)CC2C4)CC1 (centres undefined) | 12.4 | 12.2 | 11.4 | 16.3 | 58.43 | 60.35 | 0.135 | 2.44 | 3.34 | 24.7
CN1CCN(C2(c3ccccc3)C3CC4CC(C3)CC2C4)CC1 (centres undefined) | 17.4 | 19.5 | 17.4 | 18.7 |  |  |  |  |  | 
O=C(N1CCN(C2(c3ccccc3)C3CC4CC(C3)CC2C4)CC1)n1ccnc1 (centres undefined) | 12.2 | 13.5 | 13.5 | 10.5 | 98.16 | > 100 |  |  |  | 
Fc1ccc(C2(N3CCNCC3)C3CC4CC(C3)CC2C4)cc1.O=C(O)/C=C\C(=O)O (centres undefined) | 12.9 | 11.7 | 14.6 | 12.8 | 93.66 | > 100 |  |  |  | 
O=C(O)/C=C\C(=O)O.c1ccc(C2(N3CCNCC3)C3CC4CC(C3)CC2C4)cc1 (centres undefined) | 9.2 | 12.3 | 8.4 | 17.3 | 90 | 95.45 |  |  |  | 
CN1CCN(C2(c3ccc(F)cc3)C3CC4CC(C3)CC2C4)CC1 (centres undefined) | 15.3 | 16.6 | 15.7 | 14.6 |  |  |  |  |  | 
O=C(c1ccc(Cl)s1)N1CCN(C2(c3ccccc3)C3CC4CC(C3)CC2C4)CC1 (centres undefined) | 12.8 | 12.4 | 11.4 | 12.7 |  |  |  |  |  | 
